Laboratory results from ChEMBL document CHEMBL5346897, “smProdrugs: A repository of small molecule prodrugs” (Eur J Med Chem, 2023).
Converted amounts (≈) assume the structure as drawn.

Columns and labels:
[1] = Solubility of the compound; format: physicochemical
[2] = Lipophilicity, logP of the compound; format: physicochemical; details: octanol/water

CCOC(=O)OC(C)OC(=O)[C@@H]1N2C(=O)[C@@H](NC(=O)[C@H](N)c3ccccc3)[C@H]2SC1(C)C (some centres not stated) [BACAMPICILLIN]
solubility [1]: 123 µg/mL (≈ 264 µM) | logP [2]: 0.88
